Where a SMILES comes first, the peptide text is derived from it.

A short description of data set [1]: Compaction index of excipients. The format is physicochemical. Particulars: force to fracture a solid mass prepared by compaction of 500 mg of powder under 1000 lbs pressure, 16/32″ die, flat face punches. From the text: In some embodiments, the concentration of the non-polymeric water-soluble carrier, disintegrant, and water-insoluble polymer can be selected to optimize the physical integrity of the dosage forms of the present invention (i.e., to minimize the friability of the dosage forms of the present invention). Not being bound by any particular theory, the durability, robustness, and/or friability of the compressed dosage forms of the present invention can be estimated using the compaction index of the excipients used to prepare the dosage forms. As used herein, “compaction index” refers to the force in kiloponds (kp) required to fracture a solid mass prepared by compaction of 500 mg of powder under 1000 lbs pressure using a 16/32″ die and flat face punches. To obtain dosage forms having both low friability and low hardness, a mixture used to prepare the dosage forms can have a compaction index of at least about 5 kp/500 mg/1000 lbs. Not being bound by any particular theory, the compaction index can be used as an indicator of particle interactions in a compressed solid dosage form. For example, the compression of a dry mixture usually has a significant effect on the inter-particle interactions within the mixture, and can involve combinations of • (i) closer contact between particles and the exclusion of air; • (ii) alignment and interlocking of particles; • (iii) the development of stresses and shearing forces that result in fracture and the generation of smaller particles; • (iv) elastic and plastic deformations of particles that can change particle shape; and • (v) chemical bonding between adjacent particles, especially during long-term storage.
Depending on the properties of the excipients comprising the mixture, powdered mixtures can undergo elastic, plastic, or visco-elastic deformation, or brittle fracture, when placed under compressive force. After compression, a compressed dosage form tends to undergo elastic recovery, visco-elastic recovery or brittle fracture. […]

The nature of data set [2]: Particle size and particle size distribution of ingredients. The conditions noted are these: for D50: median particle size of ingredient used for Dosage Form A; for D10 / D90: particle size distribution of ingredient used for Dosage Form A; for VMD: volume mean diameter D[4,3] of ingredient used for Dosage Form A. The format is physicochemical. An excerpt:
As used herein, the term “particle size” refers to particle diameter. Particle size and particle size distribution can be measured using, for example, a Hyac/Royco particle size analyzer, a Malvern particle size analyzer, a Beckman Coulter laser diffraction particle size analyzer, or a Shimadzu laser diffraction particle size analyzer. As used herein, the term “diameter” relates to a volumetric measurement based on an approximate spherical shape of a particle. In addition to encompassing free base clozapine particles of a given size, the present invention is also directed to formulations and solid oral dosage forms wherein the distribution of particle sizes of free base clozapine and the excipients are controlled. As used herein, a “distribution” refers to the number or concentration (i.e., percentage) of particles having a certain size, or range of sizes, within a given lot, batch, or solid oral dosage form of the present invention.
As used herein, “volume mean diameter,” when used in reference to the size of particles for use with the present invention, refers to the value of the volume moment mean as represented by D[4,3]. This value indicates the central point of frequency around which the distribution of surface area or volume rotates.
As used herein, the “median” particle size is synonymous with the “particle size D50,” in microns. For example, for the five particle values listed above, the median diameter, or particle size D50, would be 20 μm.
As used herein, “particle size D90,” refers a mixture wherein about 90% of all measurable particles have a diameter equal to or less than the value D90, in microns, and 10% of the measurable particles have a diameter greater than the value of D90, in microns.
The particle size and particle size distribution of the various excipient used in the particulate mixture of the present invention are listed in Table 2.

In the case of `COC(=O)[C@H](Cc1ccccc1)NC(=O)[C@@H](N)CC(=O)O` [Aspartame] (H-Asp-Phe-OMe), the Compaction index in data set [1] amounted to 10 kp/500 mg/1000 lbs.

In data set [2], `CN1CCN(C2=Nc3cc(Cl)ccc3Nc3ccccc32)CC1` [Free base clozapine, 8-chloro-11-(4-methyl-1-piperazinyl)-5H-dibenzo[b,e][1,4]diazepine, reference compound] came in with a D50 of 19 μm, a D10 of 5 μm, a D90 of 51 μm and a VMD of 25 μm.

As for `OC[C@@H](O)[C@@H](O)[C@H](O)[C@H](O)CO` [Mannitol], in data set [2], the D50 turned out to be 221 μm, the D10 amounted to 81 μm, the D90 came to 507 μm and the VMD worked out at 263 μm. Besides, in data set [1], the Compaction index turned out to be 9 kp/500 mg/1000 lbs.

As to `OC[C@@H](O)[C@H](O)[C@@H](O)CO` [Xylitol], in data set [2], the D50 is given as 167 μm, the D10 amounted to 86 μm, the D90 worked out at 310 μm and the VMD is 184 μm. In addition, the Compaction index in data set [1] is 0.7 kp/500 mg/1000 lbs.

The values are drawn from patent publication US7811604B1, “Non-effervescent, orally disintegrating solid pharmaceutical dosage forms comprising clozapine and methods of making and using the same” (Barr Laboratories, Inc., priority 2005, dated 2010).
